# Laboratory results as given in ChEMBL document CHEMBL1201862, “PubChem BioAssay data set” (2004).
#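 Briefly, cells in 96-well plates were exposed to five compound concentrations for 48 h, and endpoints were estimated by linear interpolation. Abbreviation: GI50, concentration required for 50% inhibition of growth.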 Active and inactive are the calls of the source. Rule as the data show it: active = GI50 up to about 1.1 µM and inactive = higher.
# Experiments:
# Assay in all cases: DTP human tumour cell line panel, 48 h
# [1] = test system: 786-0
# [2] = test system: A498
# [3] = test system: A549
# [4] = test system: ACHN
# [5] = test system: BT-549
# [6] = test system: CAKI-1
# [7] = test system: CCRF-CEM
# [8] = test system: COLO 205
# [9] = test system: DU-145
# [10] = test system: EKVX
# [11] = test system: HCC 2998
# [12] = test system: HCT-116
# [13] = test system: HCT-15
# [14] = test system: HL-60
# [15] = test system: HOP-62
# [16] = test system: HOP-92
# [17] = test system: HT-29
# [18] = test system: Hs-578T
# [19] = test system: IGROV-1
# [20] = test system: K562
# [21] = test system: KM12
# [22] = test system: LOX IMVI
# [23] = test system: M14
# [24] = test system: MCF7
# [25] = test system: MDA-MB-231
# [26] = test system: MDA-MB-435
# [27] = test system: MDA-N
# [28] = test system: MOLT-4
# [29] = test system: Malme-3M
# [30] = test system: NCI-H226
# [31] = test system: NCI-H23
# [32] = test system: NCI-H460
# [33] = test system: NCI-H522
# [34] = test system: NCI/ADR-RES
# [35] = test system: OVCAR-3
# [36] = test system: OVCAR-4
# [37] = test system: OVCAR-5
# [38] = test system: OVCAR-8
# [39] = test system: PC-3
# [40] = test system: RPMI-8226
# [41] = test system: RXF 393
# [42] = test system: SF-268
# [43] = test system: SF-295
# [44] = test system: SF-539
# [45] = test system: SK-MEL-28
# [46] = test system: SK-MEL-2
# [47] = test system: SK-MEL-5
# [48] = test system: SN12C
# [49] = test system: SNB-19
# [50] = test system: SNB-75
# [51] = test system: SR
# [52] = test system: SW-620
# [53] = test system: T47D
# [54] = test system: TK-10
# [55] = test system: U-251
# [56] = test system: UACC-257
# [57] = test system: UACC-62
# [58] = test system: UO-31
# [59] = test system: SK-OV-3
structure (smiles),measurement,setting,value
CCCCCCCCCC[C@H](O)[C@H]1CC[C@H]([C@H]2CC[C@H]([C@H](O)CC[C@H](O)CCCCCCC[C@@H](O)CC3=C[C@H](C)OC3=O)O2)O1,GI50,[1],25.1 µM (inactive)
same,GI50,[2],1.75 µM (inactive)
same,GI50,[3],4.6 µM (inactive)
same,GI50,[4],1.6 µM (inactive)
same,GI50,[5],68.1 µM (inactive)
same,GI50,[6],57 µM (inactive)
same,GI50,[7],3.6 µM (inactive)
same,GI50,[8],12.2 µM (inactive)
same,GI50,[9],> 10 µM (inactive)
same,GI50,[10],23.5 µM (inactive)
same,GI50,[11],> 100 µM (inactive)
same,GI50,[12],< 0.01 µM (active)
same,GI50,[13],43.9 µM
same,GI50,[14],2.51 µM (inactive)
same,GI50,[15],> 10 µM (inactive)
same,GI50,[16],6.93 µM (inactive)
same,GI50,[17],> 10 µM (inactive)
same,GI50,[18],> 10 µM (inactive)
same,GI50,[19],15.7 µM (inactive)
same,GI50,[20],2.96 µM (inactive)
same,GI50,[21],9.14 µM (inactive)
same,GI50,[22],7.46 µM (inactive)
same,GI50,[23],46.9 µM (inactive)
same,GI50,[24],1.52 µM (inactive)
same,GI50,[25],> 10 µM (inactive)
same,GI50,[26],3.9 µM (inactive)
same,GI50,[27],8.75 µM (inactive)
same,GI50,[28],2.96 µM (inactive)
same,GI50,[29],25.8 µM (inactive)
same,GI50,[30],2.47 µM (inactive)
same,GI50,[31],1.82 µM (inactive)
same,GI50,[32],1.46 µM (inactive)
same,GI50,[33],10.7 µM (inactive)
same,GI50,[34],1.61 µM (inactive)
same,GI50,[35],18.3 µM (inactive)
same,GI50,[36],41.4 µM (inactive)
same,GI50,[37],> 10 µM (inactive)
same,GI50,[38],85.7 µM (inactive)
same,GI50,[39],5.7 µM (inactive)
same,GI50,[40],1.04 µM (active)
same,GI50,[41],40 µM (inactive)
same,GI50,[42],3.57 µM (inactive)
same,GI50,[43],1.66 µM (inactive)
same,GI50,[44],24 µM (inactive)
same,GI50,[45],> 10 µM (inactive)
same,GI50,[46],78 µM (inactive)
same,GI50,[47],1.41 µM (inactive)
same,GI50,[48],91.4 µM (inactive)
same,GI50,[49],17 µM (inactive)
same,GI50,[50],19.1 µM (inactive)
same,GI50,[51],9.14 µM (inactive)
same,GI50,[52],> 10 µM (inactive)
same,GI50,[53],5.25 µM (inactive)
same,GI50,[54],31 µM (inactive)
same,GI50,[55],> 10 µM (inactive)
same,GI50,[56],1.08 µM (active)
same,GI50,[57],> 10 µM (inactive)
same,GI50,[58],2.02 µM (inactive)
C=C1C(C2(C)C=CC(=O)OC3(C)COC(=O)CC32)C(OC=O)C(OC(=O)C(O)C(C)CC)C2(C)C(c3ccoc3)CC(OC(C)=O)C12O (stereo not drawn),GI50,[1],> 100 µM (inactive)
same,GI50,[2],> 100 µM (inactive)
same,GI50,[3],> 100 µM (inactive)
same,GI50,[4],75.9 µM (inactive)
same,GI50,[5],54.6 µM (inactive)
same,GI50,[6],> 100 µM (inactive)
same,GI50,[7],35 µM (inactive)
same,GI50,[8],81.8 µM (inactive)
same,GI50,[9],> 100 µM (inactive)
same,GI50,[10],> 100 µM (inactive)
same,GI50,[11],23.6 µM (inactive)
same,GI50,[12],49 µM (inactive)
same,GI50,[13],84.3 µM
same,GI50,[14],2.69 µM (inactive)
same,GI50,[15],> 100 µM (inactive)
same,GI50,[16],> 100 µM (inactive)
same,GI50,[17],32.8 µM (inactive)
same,GI50,[18],> 100 µM (inactive)
same,GI50,[19],93.5 µM (inactive)
same,GI50,[20],> 100 µM (inactive)
same,GI50,[21],34 µM (inactive)
same,GI50,[22],25.3 µM (inactive)
same,GI50,[23],38.8 µM (inactive)
same,GI50,[24],> 100 µM (inactive)
same,GI50,[25],> 100 µM (inactive)
same,GI50,[26],40 µM (inactive)
same,GI50,[27],37.6 µM (inactive)
same,GI50,[28],> 100 µM (inactive)
same,GI50,[30],> 100 µM (inactive)
same,GI50,[31],> 100 µM (inactive)
same,GI50,[32],42.1 µM (inactive)
same,GI50,[33],> 100 µM (inactive)
same,GI50,[34],> 100 µM (inactive)
same,GI50,[35],> 100 µM (inactive)
same,GI50,[37],> 100 µM (inactive)
same,GI50,[38],> 100 µM (inactive)
same,GI50,[39],39.2 µM (inactive)
same,GI50,[40],> 100 µM (inactive)
same,GI50,[41],> 100 µM (inactive)
same,GI50,[42],> 100 µM (inactive)
same,GI50,[43],84.1 µM (inactive)
same,GI50,[44],> 100 µM (inactive)
same,GI50,[45],> 100 µM (inactive)
same,GI50,[46],64.3 µM (inactive)
same,GI50,[47],35 µM (inactive)
same,GI50,[59],> 100 µM (inactive)
same,GI50,[48],> 100 µM (inactive)
same,GI50,[49],> 100 µM (inactive)
same,GI50,[50],50.5 µM (inactive)
same,GI50,[51],38.9 µM (inactive)
same,GI50,[52],> 100 µM (inactive)
same,GI50,[53],> 100 µM (inactive)
same,GI50,[54],> 100 µM (inactive)
same,GI50,[55],> 100 µM (inactive)
same,GI50,[56],> 100 µM (inactive)
same,GI50,[57],35.6 µM (inactive)
same,GI50,[58],67.3 µM (inactive)
COC(=O)/C=C\C(C#N)(C#N)/N=C/c1ccc(Br)cc1,GI50,[1],1.02 µM (active)
same,GI50,[2],16.2 µM (inactive)
same,GI50,[3],2.77 µM (inactive)
same,GI50,[4],2.97 µM (inactive)
same,GI50,[5],11.2 µM (inactive)
same,GI50,[6],2.66 µM (inactive)
same,GI50,[7],1.54 µM (inactive)
same,GI50,[8],3.37 µM (inactive)
same,GI50,[9],12.1 µM (inactive)
same,GI50,[10],14.2 µM (inactive)
same,GI50,[11],16.9 µM (inactive)
same,GI50,[12],2.57 µM (inactive)
same,GI50,[13],2.94 µM
same,GI50,[14],0.0389 µM (active)
same,GI50,[15],16.7 µM (inactive)
same,GI50,[16],1.99 µM (inactive)
same,GI50,[17],2.58 µM (inactive)
same,GI50,[18],17.6 µM (inactive)
same,GI50,[19],14.3 µM (inactive)
same,GI50,[20],3.4 µM (inactive)
same,GI50,[21],14.4 µM (inactive)
same,GI50,[22],1.85 µM (inactive)
same,GI50,[23],7.26 µM (inactive)
same,GI50,[24],3.52 µM (inactive)
same,GI50,[25],4.08 µM (inactive)
same,GI50,[26],7 µM (inactive)
same,GI50,[27],5.71 µM (inactive)
same,GI50,[28],0.673 µM (active)
same,GI50,[29],3.24 µM (inactive)
same,GI50,[30],6.4 µM (inactive)
same,GI50,[31],14.9 µM (inactive)
same,GI50,[32],19.6 µM (inactive)
same,GI50,[33],0.489 µM (active)
same,GI50,[34],20.2 µM (inactive)
same,GI50,[35],12 µM (inactive)
same,GI50,[36],8.83 µM (inactive)
same,GI50,[37],14.1 µM (inactive)
same,GI50,[38],5.47 µM (inactive)
same,GI50,[39],13.4 µM (inactive)
same,GI50,[40],2.38 µM (inactive)
same,GI50,[41],4.92 µM (inactive)
same,GI50,[42],15.5 µM (inactive)
same,GI50,[43],18.2 µM (inactive)
same,GI50,[45],15.4 µM (inactive)
same,GI50,[46],19.3 µM (inactive)
same,GI50,[47],1.5 µM (inactive)
same,GI50,[59],18.8 µM (inactive)
same,GI50,[48],5.42 µM (inactive)
same,GI50,[49],2.74 µM (inactive)
same,GI50,[50],15 µM (inactive)
same,GI50,[51],5.42 µM (inactive)
same,GI50,[52],2.76 µM (inactive)
same,GI50,[53],3.63 µM (inactive)
same,GI50,[54],2.45 µM (inactive)
same,GI50,[55],13.6 µM (inactive)
same,GI50,[56],14.8 µM (inactive)
same,GI50,[57],11.3 µM (inactive)
same,GI50,[58],4.36 µM (inactive)
